Series [1] deals with mechanical hypersensitivity. Conditions: injected into rats with pancreatite; cited from earlier work.
Series [2] addresses T1, human TrkB kinase (Homo sapiens, UniProt Q16620).
T1 construct: The intracellular domain of a HIS-tagged human TrkB kinase; HIS; made in house; host or cells: SF9 insect cells
The series is described as follows: TrkB kinase assay (HTRF). The note with it: intracellular domain of HIS-tagged human TrkB. Type of series: biochemical. On the procedure: TrkB kinase activity is being measured against its ability to phosphorylate synthetic tyrosine residues within a generic polypeptide substrate using homogenous time-resolved fluorescence (HTRF) technology. The intracellular domain of a HIS-tagged human TrkB kinase was expressed in SF9 cells and purified using standard nickel column chromatography. After the kinase is incubated with a biotinylated substrate and ATP for 50 minutes at room temperature, the kinase reaction is stopped by the addition of 60 mM EDTA. The reaction is performed in 384 well microtitre plates and reaction products are detected with the addition of strepavidin-linked and phosphotyrosine-specific antibodies using the Tecan Ultra Evolution Microplate Fluometer after an additional 3-hour incubation at room temperature.
(§1) When tested in the above in-vitro assay the Trk inhibitory activity of the following examples was measured at the following IC50s.

In series [3] the target is T2, human TrkA kinase (Homo sapiens, UniProt P04629).
T2 construct: The intracellular domain of a His-tagged human TrkA kinase; His; made in house; host or cells: High Five insect cells
T2 sequence (P04629 440-796 limits assumed): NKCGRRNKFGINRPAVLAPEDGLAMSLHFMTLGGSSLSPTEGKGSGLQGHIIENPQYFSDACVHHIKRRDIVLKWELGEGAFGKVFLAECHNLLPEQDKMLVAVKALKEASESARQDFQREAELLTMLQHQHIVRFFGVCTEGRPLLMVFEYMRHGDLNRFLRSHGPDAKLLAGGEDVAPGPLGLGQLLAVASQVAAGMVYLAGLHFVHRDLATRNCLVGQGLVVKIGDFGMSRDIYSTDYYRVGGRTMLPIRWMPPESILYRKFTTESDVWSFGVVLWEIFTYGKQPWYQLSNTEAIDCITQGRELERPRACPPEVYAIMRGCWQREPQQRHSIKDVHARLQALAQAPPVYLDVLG
Put plainly: TrkA kinase assay (AlphaScreen). The class given is biochemical. Conditions: intracellular domain of His-tagged human TrkA, 20 μM ATP (=Km). The procedure: TrkA kinase activity is measured in 384-well format using AlphaScreen technology. […] The intracellular domain of a His-tagged human TrkA kinase was expressed in High Five cells. The kinase was incubated with ATP and the biotinylated substrate for 15 minutes at room temperature. The reactions were then stopped by the addition of EDTA, anti-phosphotyrosine antibody (PT-100) coated acceptor beads and streptavidin coated donor beads. After 2 h of incubation in the dark at room temperature, the product was detected using a Fusion Alpha instrument. […] Termination/Detection conditions: 25 mM HEPES pH 7.4, 100 mM NaCl, 48 mM EDTA, 0.1% BSA and 20 μg/ml of donor and acceptor beads.
as §1

Series [4] relates to carrageenan monoarthritis. The series is described as follows: Rat carrageenan test (carrageenan monoarthritis, pain score). The class given is in vivo. The note with it: oral, 80 μmol/kg. On the procedure:
The compounds used according to the invention when given by systemic administration to mice or rats, specifically reduce pain in the rat carrageenan test as described by Tonussi and Ferreira (Pain 1992, 48, 421-427).
Description of the Rat Carrageenan Test
Experimental procedures. Under isoflurane anesthesia, 40 μL of carrageenan (7.5 mg/mL) was injected into the left tibio-tarsal (ankle) joint from the dorsal side. The injection causes a localized inflammation increasing to a maximum between 4 h to 6 h after induction, after which it gradually decreases, and the animals display decreased weight bearing on and guarding of the limb.
(2R)-2-{[5-Chloro-4-(1H-pyrazol-5-ylamino)pyrimidin-2-yl]amino}-2-(4-fluorophenyl)ethanol was administered 30 min before induction of monoarthritis. The rats were placed in an acrylic chamber and videotaped for 5 min from underneath, 2 h, 2 h30, 3 h, 3 h30, 5 h after drug administration. Subsequently, the weight the rats were willing to put on the injected paw was scored as described in the table below, and defined as the “Pain Score”: […]
Data analysis. Two Way Repeated Measures ANOVA (one factor repetition) followed by Newmans-Keuls method for all pairwise multiple comparison procedures (SigmaStat® 2.03) was used to evaluate group effects. The level of significance was set at p<0.05.

Molecules are shown by their SMILES.

T1 sequence (Q16620 455-822 limits assumed): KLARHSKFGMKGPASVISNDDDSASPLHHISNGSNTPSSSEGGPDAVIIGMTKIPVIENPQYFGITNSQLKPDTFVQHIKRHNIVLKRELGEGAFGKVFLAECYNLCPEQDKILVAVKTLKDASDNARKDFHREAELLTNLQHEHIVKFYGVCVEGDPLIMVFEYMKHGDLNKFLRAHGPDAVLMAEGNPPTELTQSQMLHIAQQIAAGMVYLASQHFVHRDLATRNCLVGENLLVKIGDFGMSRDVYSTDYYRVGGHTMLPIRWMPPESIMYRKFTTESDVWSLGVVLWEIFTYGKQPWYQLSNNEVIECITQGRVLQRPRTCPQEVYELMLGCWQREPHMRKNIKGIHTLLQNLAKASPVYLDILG

As to `COC(=O)[C@@]1(O)C[C@H]2O[C@]1(C)n1c3ccccc3c3c4c(c5c6ccccc6n2c5c31)C(=O)NC4` [Compound K252a, K252a], the mechanical hypersensitivity result in series [1] is “could suppress mechanical hypersensitivity”. For `OC[C@H](Nc1ncc(F)c(Nc2cc(C3CC3)[nH]n2)n1)c1ccc(F)cc1` [(2R)-2-({4-[(5-Cyclopropyl-1H-pyrazol-3-yl)amino]-5-fluoropyrimidin-2-yl}amino)-2-(4-fluorophenyl)ethanol], the IC50 in series [2] worked out at 260 nM; in series [3], 75 nM. The like results for `OCC[C@H](Nc1ncc(Cl)c(Nc2cc(C3CC3)[nH]n2)n1)c1ccc(F)cc1` [(3S)-3-({4-[(5-Cyclopropyl-1H-pyrazol-3-yl)amino]-5-chloropyrimidin-2-yl}amino)-3-(4-fluorophenyl)propan-1-ol] were, in that order, 220 nM and 39 nM. Take `OC[C@H](Nc1ncc(Cl)c(Nc2ccn[nH]2)n1)c1ccc(F)cc1` [(2R)-2-{[5-Chloro-4-(1H-pyrazol-5-ylamino)pyrimidin-2-yl]amino}-2-(4-fluorophenyl)ethanol]: the signs of side-effects result in series [4] is on record as “did not show signs of side-effects”. Further, the “pain score induced by carrageenan monoarthritis” value in series [4] (given 30 min before induction, within 5 hours after administration, p<0.05) is recorded as “significantly reduced”. In the case of `C[C@H](Nc1ncc(Cl)c(Nc2cc(C3CC3)n[nH]2)n1)c1ccc(F)cc1` [5-Chloro-N^4-(5-cyclopropyl-1H-pyrazol-3-yl)-N^2-[(1S)-1-(4-fluorophenyl)ethyl]pyrimidine-2,4-diamine], the figures for the IC50 in series [2] and in series [3] were 140 nM and 35 nM, respectively.

The values above are taken from patent US20090005396A1, “Use of Pyrazolyl-Pyrimidine Derivatives in the Treatment of Pain” (ASTRAZENECA AB, priority 2005, published 2009).
